Assays:
Alternaria brassicae = assay: In vivo test on Alternaria brassicae (leaf spot of crucifers); conditions: radish plants (Pernot variety), preventive spray at 330 ppm, contamination after 24 hours, grading 6 to 7 days after contamination vs control plants
Method: (§1) The active ingredients tested are prepared by potter homogenisation in a mixture of acetone/tween/water. This suspension is then diluted with water to obtain the desired active material concentration.
Radish plants (Pernot variety), sown on a 50/50 peat soil-pozzolana substrate in starter cups and grown at 18-20° C., are treated at the cotyledon stage by spraying with the active ingredient prepared as described above.
Plants, used as controls, are treated with the mixture of acetone/tween/water not containing the active material.
After 24 hours, the plants are contaminated by spraying them with an aqueous suspension of Alternaria brassicae spores (40,000 spores per cm^3). The spores are collected from a 12 to 13 days-old culture.
The contaminated radish plants are incubated for 6-7 days at about 18° C., under a humid atmosphere.
Grading is carried out 6 to 7 days after the contamination, in comparison with the control plants.

Pyrenophora teres = assay: In vivo test on Pyrenophora teres (barley net blotch); conditions: barley plants (Express variety), preventive spray at 330 ppm, contamination after 24 hours, grading 12 days after contamination vs control plants
Method: as §1
Barley plants (Express variety), sown on a 50/50 peat soil-pozzolana substrate in starter cups and grown at 12° C., are treated at the 1-leaf stage (10 cm tall) by spraying with the active ingredient prepared as described above. Plants, used as controls, are treated with the mixture of acetone/tween/water not containing the active material.
After 24 hours, the plants are contaminated by spraying them with an aqueous suspension of Pyrenophora teres spores (12,000 spores per ml). The spores are collected from a 12-day-old culture. The contaminated barley plants are incubated for 24 hours at about 20° C. and at 100% relative humidity, and then for 12 days at 80% relative humidity.
Grading is carried out 12 days after the contamination, in comparison with the control plants.

Structure (SMILES): O=C(NCCCc1ncc(C(F)(F)F)cc1Cl)c1ccccc1C(F)(F)F [Compound 1, N-{3-[3-chloro-5-(trifluoromethyl)pyridin-2-yl]propyl}-2-(trifluoromethyl)benzamide]
- protection (Alternaria brassicae): at least 70%
- protection (Pyrenophora teres): at least 70%
